Results reported in patent US20120308548A1 (NOVA SOUTHEASTERN UNIVERSITY, priority 2010, published 2012).
Several values for one entry are separate records, joined by “and”; a condition that tells them apart may be missing. Equal values may be shown once. Entries after “also recorded” stand apart in the source; their conditions may differ. Read-outs that look alike come from different tables or passages of the source.

Tests used:
[1] = biological target: T1, MEGL/2ABD (Porphyromonas gingivalis, UniProt Q7MX71); assay type: biochemical; settings: isotope assay, FIG. 13E
T1 construct: hexa-His tag with TEV protease site (N, cleaved yes); made in house; host or cells: E. coli BL21 (DE3)
T1 sequence (Q7MX71 7-399): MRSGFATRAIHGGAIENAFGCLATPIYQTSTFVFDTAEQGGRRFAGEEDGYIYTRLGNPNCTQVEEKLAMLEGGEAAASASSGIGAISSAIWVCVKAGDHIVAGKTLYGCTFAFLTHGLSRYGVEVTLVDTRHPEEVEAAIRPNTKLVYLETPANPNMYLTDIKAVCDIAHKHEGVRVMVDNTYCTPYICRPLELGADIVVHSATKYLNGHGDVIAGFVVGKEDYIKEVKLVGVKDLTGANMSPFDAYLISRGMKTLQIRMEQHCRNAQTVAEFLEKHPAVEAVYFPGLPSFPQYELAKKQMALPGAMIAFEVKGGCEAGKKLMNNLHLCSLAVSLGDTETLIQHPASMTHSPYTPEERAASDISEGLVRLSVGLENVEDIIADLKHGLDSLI
Method: Typically the overall reaction of α-ketobutyrate formation was performed in a total volume of 24 μl. The reaction contained 4 μl of reaction buffer [150 mM Tris-HCl (pH 8.0)], 4 μl of 1 mM pyridoxal phosphate (PLP), 3 μl of H2O, 6 μl of storage buffer, and 4 μl of diluted protein (0.4 μg), gently mixed and incubated at 37° C. for 5 minutes. The reaction was started by adding 1.93×10^5 cpm of 1-^14C-L-methionine (8814 cpm/nmol) and the contents were incubated at 37° C. for 15 minutes. The reaction was stopped by boiling for a minute, cooled on ice for 2 minutes and centrifuged at 3575 g for 7 minutes. A 2 μl aliquot was then chromatographed on a silica gel plate using 25% 20 mM phosphate buffer (pH 7.0) and 75% acetonitrile. Following chromatography, the TLC plates were dried, and exposed to x-ray film for 36-48 hours (Eastman-Kodak Co). The respective spots of substrate and products were cut out and radioactivity determined by liquid scintillation. […]

[2] = test system: HEK-AD293T cells; assay: Transfection with MEGL/2ABD construct, confocal microscopy, HEK-AD293T; assay type: cell-based; settings: for effect of expressed MEGL/2ABD on HEK-AD293T cells: cell aggregation: 18 hours after transfection
Excerpt: (§1) The recombinant vector pMEGL-ET containing MEGL insert and pEGFP-C3 mammalian expression vector (Promega, Inc.) were digested with EcoR I and Bgl II restriction enzymes. The digested products were separated on 1% agarose to verify digestion and the MEGL insert was ligated into pEGFP-C3 vector. The ligated vector was then transformed into DH5α bacteria and the recombinant colonies were selected by kanamycin resistance. The plasmid from the recombinant colonies, were further tested for the insert by PCR using MEGL/2ABD specific primers. The recombinant bacteria, was then grown in bulk, plasmid isolated by maxi/mini preps using columns (Qiagen, Inc.). Purified plasmid was then used for mammalian transfection. HeLa, HEK-AD293T and BHK-21 cells (ATCC, Rockville, Md.) were grown in 75-cm^2 flasks in Dulbecco's modified Eagle's medium, supplemented with 10% fetal bovine serum 100 units/ml penicillin and 100 μg/ml streptomycin (Invitrogen Inc), in an atmosphere of 5% CO2, 95% air at 37° C. For confocal microscopy, cells were plated on cover slips in 35 mm^2 dishes. When cells reached 50-75% confluency they were placed in serum and antibiotic-free medium and co-transfected with plasmid DNA containing GFP and with or without MEGL/2ABD insert. […] Transfections of HEK-AD293T cells were performed using standard calcium phosphate methods. After incubation of cells for 4-18 hours, cells were washed with phosphate-buffered saline, fixed with 4% formaldehyde for 8 minutes, permeabilized using 0.2% Triton X-100 (Sigma-Aldrich) and mounted on glass slides using the ProLong Antifade Kit (Molecular Probes) for staining with DAPI using standard protocols. Samples were examined on a Zeiss LSM510 confocal microscope.
(§2) After 18 hour incubations cells were washed with phosphate-buffered saline, fixed, permeabilized and mounted on glass slides using the ProLong Antifade Kit (Molecular Probes) with DAPI staining as previously described by Enniga et al. 2006. Samples were examined on a Zeiss LSM510 confocal microscope.

[3] = test system: HeLa cells; assay: Transfection with MEGL/2ABD construct, confocal microscopy (GFP, DAPI), HeLa; assay type: cell-based; settings: for rescue of MEGL/2ABD-transfected HeLa cells from death: propargylglycine in culture medium (10 μM, 2 hours after transfection)
Excerpt: as §1, §2

[4] = test system: BHK-21 cells; assay: Transfection with MEGL/2ABD construct, confocal microscopy, BHK-21; assay type: cell-based; settings: for effect of expressed MEGL/2ABD on BHK-21 cells: cell aggregation: 18 hours after transfection
Excerpt: as §1, §2

[5] = biological target: T2, MEGL (Porphyromonas gingivalis, UniProt Q7MX71); assay type: biochemical
T2 construct: His tag (N, cleaved yes); made in house
T2 sequence (Q7MX71 7-399): as above
Method: This assay uses C^14-labeled methionine and recombinant, purified, HIS-TAG cleaved and further purified MEGL protein. The MEGL enzyme forms very specific radiolabeled nonvolatile C^14-labeled α-ketobutyrate. Further the products are separated by a silica gel-G thin layer chromatography (TLC) method using 75% acetonitrile and 25% 20 mM phosphate buffer (pH 7.0) solvent system.
Further characterization of the enzyme was made using these protocols.

[6] = test system: HEK-AD293T cells; settings: 18 hours after transfection
Method: (§3) The effect of MEGL on cell viability was determined using 3-[4,5-dimethylthiazol-2-yl]-2,5-diphenyl-tetrazolium bromide (MTT, Sigma-Aldrich). For MTT assay, cells were suspended at a concentration of ˜4×10^4 cells (180 μl/well). 20 μl of MTT solution (5 mg/ml) was added for each well and incubate at 37° C. and 5% CO2 for about 2-5 hours for purple color development. Formazan precipitates were dissolved in DMSO for 30 minutes at 37° C., and the absorbance was measured at 570 nm.
(§4) Viability of cells transfected with MEGL construct. Three different cell lines (Hela, BHK-21, and HEK-AD293T) were plated in 96-well plates and transfected with either vector expressing green fluorescent protein, GFP (pEGFP-C3), or MEGL and GFP (pEGFP-C3-MEGL). After 18 hours of transfection, cells were treated with MTT and viability was determined by measuring the MTT absorbance at λ570 nm. Control absorbance was arbitrarily determined as 100% viability.

[7] = test system: BHK-21 cells; settings: BHK-21, 18 hours after transfection
Method: as §3, §4

[8] = Method: Typically the overall reaction of α-ketobutyrate formation was performed in a total volume of 24 μl. The reaction contained 4 μl of reaction buffer [150 mM Tris-HCl (pH 8.0)], 4 μl of 1 mM pyridoxal phosphate (PLP), 3 μl of H2O, 6 μl of storage buffer, and 4 μl of diluted protein (0.4 μg), gently mixed and incubated at 37° C. for 5 minutes. The reaction was started by adding 1.93×10^5 cpm of 1-^14C-L-methionine (8814 cpm/nmol) and the contents were incubated at 37° C. for 15 minutes. The reaction was stopped by boiling for a minute, cooled on ice for 2 minutes and centrifuged at 3575 g for 7 minutes. A 2 μl aliquot was then chromatographed on a silica gel plate using 25% 20 mM phosphate buffer (pH 7.0) and 75% acetonitrile. Following chromatography, the TLC plates were dried, and exposed to x-ray film for 36-48 hours (Eastman-Kodak Co). The respective spots of substrate and products were cut out and radioactivity determined by liquid scintillation.
The activity was measured using different amounts of protein ranging from 0.1 to 1 μg and the reaction was performed for 5-30 minutes.
Reaction at each protein concentration was performed for 15 minutes at pH 8.0 according to the standard assay procedures described. Effect of time was tested using 0.4 μg of protein. […]

[9] = propargylglycine in culture medium (10 μM, 2 hours after transfection)

## CSCC[C@@H](N)C(=O)O [D-methionine]
[1]
  relative MEGL/2ABD activity (L-methionine) in the presence of competing compound: 43.6%

## C[Se]CC[C@H](N)C(=O)O [selenomethionine]
[1]
  relative MEGL/2ABD activity (L-methionine) in the presence of competing compound: 33.15%
[1]; listed as seleno-methionine
  relative MEGL/2ABD activity (L-methionine) in the presence of competing compound: 33.2%

## N[C@@H](CS)C(=O)O [L-cysteine]
[1]
  relative MEGL/2ABD activity (L-methionine) in the presence of competing compound: 24.5% and 25.5%

## N[C@@H](CCOC(=O)CCC(=O)O)C(=O)O [o-succinyl-homoserine, O-succinyl L-homoserine]
[1]
  relative MEGL/2ABD activity (L-methionine) in the presence of competing compound: 45.6%

## C[S+]([O-])CC[C@H](N)C(=O)O (some centres unmarked) [sulfoxymethionine, methionine-sulfoxide]
[1]
  relative MEGL/2ABD activity (L-methionine) in the presence of competing compound: 46.71%
[1]; listed as methionine-sulfoxide
  relative MEGL/2ABD activity (L-methionine) in the presence of competing compound: 46.7%

## C#CCC(N)C(=O)O (centres unmarked) [propargylglycine, reference compound]
[1]
  relative MEGL/2ABD activity (L-methionine) in the presence of competing compound: 0.26%
[2]; [9]
  effect on cell aggregation of MEGL/2ABD-transfected HEK-AD293T cells: inhibited MEGL/2ABD mediated cell aggregation; also recorded: prevented cell aggregation; also recorded: inhibited the cell aggregation
[3]
  rescue of MEGL/2ABD-transfected HeLa cells from death: restores cells from death; also recorded: restored viability
[3]; listed as Propargylglycine
  rescue of MEGL/2ABD-transfected HeLa cells from death: restored cells from death
[3]; listed as propargyl glycine
  rescue of MEGL/2ABD-transfected HeLa cells from death: restored nearly all cells from death
[4]; [9]
  effect on cell aggregation of MEGL/2ABD-transfected BHK-21 cells: inhibited MEGL/2ABD mediated cell aggregation; also recorded: prevented cell aggregation; also recorded: inhibited the cell aggregation
[5]
  effect of suicide inhibitor on MEGL activity: completely knocked out the MEGL activity

## methionine gamma lyase-2-aminobutyrate deaminase [MEGL-2ABD]
[6]; listed as MEGL
  cell death (words): no significant cell death
[6]; listed as MEGL/2ABD
  cell death (words): no cell death
[7]; listed as MEGL
  cell death (words): no significant cell death
[7]; listed as MEGL/2ABD
  cell death (words): no cell death
[8]; 72-93° C.
  overall α-ketobutyrate formation at temperatures 72-93° C.: very minimal
[8]; 15 minutes, pH 8.0, 0.4 μg protein
  temperature range of optimal activity: 37-55 °C
[2]
  effect of expressed MEGL/2ABD on HEK-AD293T cells: cell aggregation: severe cell aggregation
[2]; listed as MEGL
  effect of expressed MEGL/2ABD on HEK-AD293T cells: cell aggregation: very prominent cell aggregation
[2]; listed as MEGL/2ABD
  effect of expressed MEGL/2ABD on HEK-AD293T cells: cell aggregation: severe cell aggregation; also recorded: significant cell aggregation
[3]; 18 hours after transfection, listed as MEGL/2ABD
  effect of expressed MEGL/2ABD on HeLa cells: causes cell death; also recorded: significant cell death; also recorded: significant apoptosis
[3]; within 18 hours of transfection, judged by confocal images
  HeLa cell death: 30%
[4]
  effect of expressed MEGL/2ABD on BHK-21 cells: cell aggregation: severe cell aggregation
[4]; listed as MEGL
  effect of expressed MEGL/2ABD on BHK-21 cells: cell aggregation: very prominent cell aggregation
[4]; listed as MEGL/2ABD
  effect of expressed MEGL/2ABD on BHK-21 cells: cell aggregation: severe cell aggregation; also recorded: significant cell aggregation
[5]
  optimal temperature: 37-55 °C
  pH optimum: 8.0
[5]; oral pathology section
  Vmax: 0.57 μmol/min/mg protein

## N[C@@H](CCSC[C@H](N)C(=O)O)C(=O)O [L-cystathionine]
[1]
  relative MEGL/2ABD activity (L-methionine) in the presence of competing compound: 54.6%
